According to patent US20230067910A1, “NOVEL COMPOUNDS FOR THE DIAGNOSIS, TREATMENT AND PREVENTION OF DISEASES ASSOCIATED WITH THE AGGREGATION OF ALPHA-SYNUCLEIN” (MODAG GMBH, priority 2019, published 2023):
Read-outs that look alike come from different tables or passages of the source.

How the values were obtained:
[1] = target: T1, alpha-synuclein (sonicated fibrils) (Homo sapiens, UniProt P37840); experiment: Modified competition binding assay, protocol 3b, reference ligand [3H]-compound 1; conditions: reference ligand [3H]-compound 1 (1 nM)
T1 construct: made in house; host or cells: E. coli
Procedure: Fibrils were prepared by aggregation of recombinant protein via constant agitation. In detail, 70 μM of alpha-synuclein mixed with 100 mM NaCl in 50 mM Tris, pH 7.0+0.02% NaN3 were incubated at 1,400 rpm, 37° C. for 96 h. 10 μM of tau46 were incubated with 0.03 mg/ml heparin in 50 mM Tris, pH=7.0 at 1,000 rpm, 37° C. for 72 h.
Plates were incubated for 4.5 hours at RT covered by removable sealing tape (PerkinElmer, Waltham, Mass., USA).
Filtration and readout were performed as described for saturation binding assays.
The fibril competition assay provides Ki values. […] This assay is suitable for a screening of non-radioactive ligands.

[2] = target: T1, alpha-synuclein (sonicated fibrils); experiment: Modified competition binding assay, protocol 3b, reference ligand [3H]-compound 2; conditions: Table 5, reference ligand [3H]-compound 2 (1 nM)
Procedure: (§1) Alpha-synuclein and tau46 were purified from E. coli according to established protocols (Nuscher B, et al., J. Biol. Chem., 2004; 279(21):21966-75), Aβ1-42 was obtained from rPeptide, Watkinsville, Ga., USA. Fibrils were prepared by aggregation of recombinant protein via constant agitation. In detail, 70 μM of alpha-synuclein mixed with 100 mM NaCl in 50 mM Tris, pH 7.0+0.02% NaN3 were incubated at 1,400 rpm, 37° C. for 96 h. 10 μM of tau46 were incubated with 0.03 mg/ml heparin in 50 mM Tris, pH=7.0 at 1,000 rpm, 37° C. for 72 h. Aβ1-42 was solved in 20 mM NaPi, pH=8.0+0.2 mM EDTA+0.02% NaN3 (Deeg A A, et al., Biochim. Biophys. Acta, 2015; 1850(9): 1884-90; Goedert M, et al. Nature, 1996; 383(6600): 550-3).
For competition binding experiments, a fixed concentration of recombinant αSYN fibrils (sonicated, 15 nM/well) was incubated with 1 nM [^3H]-compound 1 or [3H]-compound 2 and decreasing concentrations of a serial dilution of non-labeled competitor (serial dilution 1:4 or 1:3.5 or 1:3 providing the concentration ranges of non-labeled competitor 1 μM-[…] 1 μM-4 nM or 1 μM-[…], respectively) in 30 mM Tris-HCl, 10% ethanol, 0.05% Tween20, pH 7.4 in a total volume of 200 μL/well. Plates were incubated for 4.5 hours at RT covered by removable sealing tape (PerkinElmer, Waltham, Mass., USA).
Filtration and readout were performed as described for saturation binding assays. [^3H]-labeled ligand binding [in CMP] was plotted against increasing competitor concentrations and data points were fitted using non-linear regression analysis to calculate the IC50 and Ki values (GraphPad Software, Inc., Version 7.03, La Jolla (Calif.), USA). In the competition binding assay with sonicated recombinant αSYN fibrils, the calculation of Ki values was done based on KD values of 0.6 nM and 0.2 nM for compound 1 and compound 2, respectively.
(§2) The fibril competition assay provides Ki values. Ki is a quantitative measure that represents the concentration of the non-radioactive tested compound (competitor ligand) required to replace 50% of a reference compound, in this case [H]-compound 1 (1 nM) or [H]-compound 2 (1 nM), which is bound to the target structures (1 nM), in our case recombinant alpha-synuclein and tau46 fibrils. This assay is suitable for a screening of non-radioactive ligands.

[3] = target: T2, alpha-synuclein (fibrils) (Homo sapiens, UniProt P37840); experiment: Competition binding assay, protocol 3a, reference ligand [3H]-compound 1, alpha-synuclein fibrils; conditions: reference ligand [3H]-compound 1 (1 nM)
T2 construct: made in house; host or cells: E. coli
Procedure: as §1
A fixed concentration of sonicated human recombinant αSYN (200 nM/well) or tau46 (208 nM/well) fibrils diluted in phosphate buffered saline (PBS) were incubated in low binding plates (96 well micro test plate, Ratiolab GmbH, Dreieich, Germany) together with 1 nM [^3H]-compound 1 and 1:4 serial dilutions of the cold compound of interest starting from 1 μM diluted in 50 mM Tris-base, 10% EtOH, 0.05% Tween20, pH 7.4. For the calculation of Ki values the KD value of compound 1 toward sonicated human recombinant αSYN fibrils was set to 3 nM.
Assay plates were incubated under agitation at 37° C. for 2 h covered by plastic foil (Resealable tape, PerkinElmer, Waltham, Mass., USA). Prior to harvesting, a filter (Printed filtermat B, PerkinElmer, Waltham, Mass., USA) was incubated with 5 mg/mL polyethylenimine (PEI, Poly(ethyleneimine) solution, Sigma Aldrich Chemie GmbH, Taufkirchen, Germany) at 4° C. for 30 min. After incubation, bound and free ligands were separated by vacuum filtration using a harvester (Filtermate harvester, PerkinElmer, Waltham, Mass., USA). The filter was washed three times with buffer cooled to 4° C. and subsequently dried in the microwave for 2 min at medium power. The filter was sealed in a plastic bag (Sample bag for MicroBeta®, PerkinElmer, Waltham, Mass., USA) together with added scintillator (BETAPLATE SCINT, PerkinElmer, Waltham, Mass., USA). Accumulation of tritium was counted in a liquid scintillation counter (Wallac MicroBeta® TriLux, 1450 LSC & Luminescence Counter, PerkinElmer, Waltham, Mass., USA) immediately. Radioactivity was plotted against the increasing tritium-labeled compound or cold compound concentrations. Data points were fitted using nonlinear regression analysis in GraphPad Prism (GraphPad Software, Inc., Version 7.03, La Jolla, Calif., USA).
as §2

[4] = system: H4 cells overexpressing alpha-synuclein hemi-Venus fusion constructs (V1S+SV2); experiment: Cellular model of aggregated alpha-synuclein-dependent toxicity, V1S+SV2 H4 cells; type: cell-based; conditions: 10 μM compound, 100 μM FeCl3, 0.75% DMSO, 48 h; for inhibition at 10 µM: read-out: Change in fraction of condensed nuclei (rel. to DMSO control) [%]
Procedure: (§3) To identify potential therapeutically useful effects, compounds were tested in two cellular models of aggregated alpha-synuclein-dependent toxicity in H4 cells. These cellular models allow for the inducible overexpression of alpha-synuclein hemi-Venus fusion constructs (V1S+SV2) or full-length alpha-synuclein (the model is described in detail in: Bartels M, Weckbecker D, Kuhn P H, Ryazanov S, Leonov A, Griesinger C, Lichtenthaler S F, Bötzel K, Giese A: Iron-mediated aggregation and toxicity in a novel neuronal cell culture model with inducible alpha-synuclein expression, Sci. Rep. 2019 Jun. 24; 9(1):9100). Moreover, addition of DMSO and FeCl3 promotes the aggregation of alpha-synuclein which is associated with an increase in cytotoxicity. The cell culture assay uses these effects by determining the change in the number of cells and the change in the percentage of condensed nuclei, which is indicative of apoptosis, in order to obtain information on which compounds show the most promising effects and thus might be therapeutically useful.
(§4) In these experiments, cells were incubated with 100 μM FeCl3 and 0.75% DMSO in the presence of 10 μM anle138c as a positive control, compounds 1 to 19 (10 μM), or DMSO as a negative control. After 48 h, the cells were imaged with an OPERA high-throughput imaging system and analyzed using Acapella software (Perkin Elmer). […] A reduction in the fraction of condensed nuclei (in the absence of a strong reduction in cell number) is indicative of a beneficial therapeutic effect.

[5] = system: H4 cells overexpressing full-length alpha-synuclein; experiment: Cellular model of aggregated alpha-synuclein-dependent toxicity, full-length alpha-synuclein H4 cells; type: cell-based; conditions: 10 μM compound, 100 μM FeCl3, 0.75% DMSO, 48 h; for inhibition at 10 µM: read-out: Change in fraction of condensed nuclei (rel. to DMSO control) [%]
Procedure: as §3, §4

[6] = Table 4b, read-out: Ki (nM) alpha-synuclein (sonicated fibrils)
[7] = Experiment A, read-out: Ki (nM) alpha-synuclein (fibrils)
[8] = Table 6 comparison series, read-out: Ki (nM), sonicated alpha-synuclein fibrils
[9] = Experiment B, read-out: Ki (nM) alpha-synuclein (sonicated fibrils)

| Ki [1, 6] | Ki [2] | Ki [3, 7] | Ki [1, 8] | Ki [3, 9] | SMILES | Change in cell number (rel. to DMSO control) [%] [4] | inhibition at 10 µM [4] | Change in cell number (rel. to DMSO control) [%] [5] | inhibition at 10 µM [5] |
| --- | --- | --- | --- | --- | --- | --- | --- | --- | --- |
| 2.6 nM | 3.3 nM | – | – | – | CNc1ccc(-c2cc(-c3cncc(Br)c3)[nH]n2)cc1 [Compound 56, 4-[5-(5-bromopyridin-3-yl)-1H-pyrazol-3-yl]-N-methylaniline] | – | – | – | – |
| – | 9.9 nM | 43 nM | – | – | CN(C)c1ncc(-c2cc(-c3ccnc(F)c3)[nH]n2)cn1 [Compound 8, 5-[5-(2-fluoropyridin-4-yl)-1H-pyrazol-3-yl]-N,N-dimethylpyrimidin-2-amine] | −4.5% | -14.2% | −5.7% | -10.7% |
| – | – | – | 3.4 nM | – | CNc1ccc(-c2cc(-c3cccc(Br)c3)[nH]n2)cc1 [Compound 64, reference compound] | – | – | – | – |
| – | 189 nM | – | – | – | Fc1cncc(-c2cc(-c3ccc4c(c3)OCO4)n[nH]2)c1 [Compound 13, 3-[3-(1,3-benzodioxol-5-yl)-1H-pyrazol-5-yl]-5-fluoropyridine] | −6.1% | -46% | −18.1% | 55.5% |
| – | – | – | – | – | Cn1nc(-c2ccnc(Br)c2)cc1-c1ccc2c(c1)OCO2 [Compound 19, 4-[5-(1,3-benzodioxol-5-yl)-1-methyl-1H-pyrazol-3-yl]-2-bromopyridine] | −5.7% | -3.2% | −30.3% | 13.2% |
| 6.7 nM | 6.6 nM | – | – | – | Brc1cccc(-c2cc(-c3ccc4c(c3)OCO4)n[nH]2)n1 [Compound 15, 2-[3-(1,3-benzodioxol-5-yl)-1H-pyrazol-5-yl]-6-bromopyridine] | −11.3% | -23.1% | −11.2% | -20.3% |
| – | – | – | – | – | Nc1ccc(-c2cc(-c3ccnc(Br)c3)[nH]n2)cc1 [Compound 7, 4-[5-(2-bromopyridin-4-yl)-1H-pyrazol-3-yl]aniline] | −30.8% | 46.1% | −37.8% | 62.5% |
| 3.3 nM | 2.8 nM | – | – | – | CNc1ccc(-c2cc(-c3cc(Br)ccn3)[nH]n2)cc1 [Compound 57, 4-[5-(4-bromopyridin-2-yl)-1H-pyrazol-3-yl]-N-methylaniline] | – | – | – | – |
| – | – | – | 1.9 nM | – | CN(C)c1ccc(-c2cc(-c3cccc(Br)c3)[nH]n2)cc1 [Compound 65, reference compound] | – | – | – | – |
| 5.1 nM | 5 nM | – | – | – | CNc1ccc(-c2cc(-c3cccc(Br)n3)[nH]n2)cc1 [Compound 58, 4-[5-(6-bromopyridin-2-yl)-1H-pyrazol-3-yl]-N-methylaniline] | – | – | – | – |
| – | 1.3 nM | – | – | – | Clc1cc(-c2cc(-c3ccc4c(c3)OCO4)n[nH]2)ccn1 [Compound 14, 4-[3-(1,3-benzodioxol-5-yl)-1H-pyrazol-5-yl]-2-chloropyridine] | −21.9% | -61% | −32.0% | 47.3% |
| – | 8.9 nM | 24 nM | – | > 300 nM | CN(C)c1ncc(-c2cc(-c3ccnc(Br)c3)[nH]n2)cn1 [Compound 6, 5-[5-(2-bromopyridin-4-yl)-1H-pyrazol-3-yl]-N,N-dimethylpyrimidin-2-amine] | −34.0% | -53.6% | −31.0% | -5.4% |
| – | 7.4 nM | – | – | – | Fc1cccc(-c2cc(-c3ccc4c(c3)OCO4)n[nH]2)n1 [Compound 11, 2-[3-(1,3-benzodioxol-5-yl)-1H-pyrazol-5-yl]-6-fluoropyridine] | −17.4% | -123% | −20.0% | -13.7% |
| 5.2 nM | 4.7 nM | – | – | – | Brc1ccnc(-c2cc(-c3ccc4c(c3)OCO4)n[nH]2)c1 [Compound 16, 2-[3-(1,3-benzodioxol-5-yl)-1H-pyrazol-5-yl]-4-bromopyridine] | −40.2% | -56.8% | −47.1% | -0.8% |
| – | 13 nM | 27 nM | – | > 60 nM | CN(C)c1ncc(-c2cc(-c3cccc(Br)c3)[nH]n2)cn1 [Compound 5, 5-[5-(3-bromophenyl)-1H-pyrazol-3-yl]-N,N-dimethylpyrimidin-2-amine] | −12.4% | 27.3% | −14.6% | 34.2% |
| 3.1 nM | 5.5 nM | – | – | – | Brc1cccc(-c2cc(-c3cc4c(cn3)OCO4)n[nH]2)c1 [Compound 20, 6-[3-(3-bromophenyl)-1H-pyrazol-5-yl]-1,3-dioxolo[4,5-c]pyridine] | – | – | – | – |
